For data set [1], the system named is enzymes having the --SH group. Particulars: result in words; cited from earlier work.
For data set [2] the following is noted: cited from earlier work.
A short description of data set [3]: In vitro dissolution test (paddle test). The data set is classed as physicochemical. To be noted: aqueous liquid solutions / formulations on the market; instantaneous. The procedure: The evaluation test in vitro is carried out with a dissolution test consistent with the apparatus described in the European Pharmacopoeia 2° ed. or UPS XXII ed. ("paddle test"). The dosage, evaluated in the time after 1, 2, 3, 4, 6 and 8 hours, is carried out with 1N hydrochloric acid, taking a known amount from the dissolution medium.
medium: distilled H20 900 ml.
Data obtained are the following (expressed as GHBNa percentage with respect to the total tablet content): […]

Data set [4] in a line: GHB average pharmacokinetic parameters after oral administration of different doses (immediate release) to 8 healthy volunteers. The format is in vivo, human (healthy volunteers). Particulars: for Tmax / half-life / CL/F / MRT: human, plasma; for absorption: result in words, immediate release / aqueous liquid solutions; for CL/F: read-out: CLo (oral clearance); for MRT: read-out: MRT (average residence time) (converted); for AUC: average (SD). From the text: GHB Average pharmacokinetic parameters after
administration of different doses to 8 healthy volunteers

The nature of data set [5]: fraction of unbound drug (dialysis). Particulars: predialysis concentration of 25 μg/ml; read-out: fu (fraction of unbound drug). The data set is classed as in vitro ADME. The procedure: ^c determined at a predialysis concentration of 25 μg/ml
peak, tmax absorption time to the peak, fu fraction of unbound

Where [6] appears, read: oral 25 mg/kg, normalized at 12.5 mg/kg.
Where [7] appears, read: oral 50 mg/kg, normalized at 12.5 mg/kg.

The structures appear in SMILES notation. Counter-ions that a name gives are not always drawn. Like-named read-outs stand apart in the source and are kept apart here.

As to `CCN(CC)C(=S)SSC(=S)N(CC)CC` [Disulfiram], the enzyme inhibition result in data set [1] is “alters the activity of all enzymes having the --SH group”. For the same molecule, in data set [2] (Disulfiram by itself, therapeutical doses), the toxicity entry was “scarcely toxic”. In addition, in data set [2] (alcohol administered after Disulfiram pretreatment), the “blood acetaldehyde concentration vs alcohol dose alone” value is given as “five to ten times higher”. Besides, in data set [2] (as a consequence of Disulfiram treatment), the severe events occurred entry was “depression, myocardial infarction, sudden and unexplained fatalities”. Besides, in data set [2] (in vivo), the “side effects (may cause)” value was “acneiform eruptions, allergic dermatitis, urticaria, lassitude, fatigue, tremor, restlessnes, reduced sexual potency, gastric or digestive disturbances”.

Regarding `O=C(O)CCCO` [GHBNa, sodium salt of gamma hydroxy butyric acid], the “release of the active substance” value in data set [3] was 100%. Besides, the Tmax in data set [4] (po, about, summary of table 1 and FIG. 1, read-out: maximum peak after the administration) fell in the range of 30 to 45 min. Also, in data set [4] (po, summary of table 1 and FIG. 1, read-out: half life), the half-life is 20 to 25 min. Further, the absorption result was “rapidly absorbed” in data set [4] and “absorbed quickly” in data set [4] (listed as sodium gamma hydroxy butyrate). The same molecule came in with an elimination time in data set [4] (summary of table 1 and FIG. 1) of 4 to 5 h.

Consider `O=C(O)CCCO` [GHB, gamma hydroxy butyric acid], for which the fraction unbound (as a rule, free concentration divided by total concentration) in data set [5] worked out at 0.99. Moreover, the Tmax in data set [4] (oral 12.5 mg/kg, average value (range), read-out: tmax (absorption time to the peak) (converted)) is 25 min; in data set [4] (oral 25 mg/kg, average value (range), read-out: tmax (absorption time to the peak) (converted)) it was 30 min; in data set [4] (oral 50 mg/kg, average value (range), read-out: tmax (absorption time to the peak) (converted)), 45 min. The CL/F in data set [4] (oral 12.5 mg/kg) was determined as 14 mL/min/kg; in data set [4] (oral 25 mg/kg), 9 mL/min/kg; in data set [4] (oral 50 mg/kg), 7 mL/min/kg. The MRT (commonly the average time that molecules of a dose stay in the body) in data set [4] (oral 12.5 mg/kg) is 45 min; in data set [4] (oral 25 mg/kg), 53 min; in data set [4] (oral 50 mg/kg), 70 min. The half-life was determined as 20 min in data set [4] (oral 12.5 mg/kg, read-out: t^1/2 z (final halflife time)); 22 min in data set [4] (oral 25 mg/kg, read-out: t^1/2 z (final halflife time)); 23 min in data set [4] (oral 50 mg/kg, read-out: t^1/2 z (final halflife time)). In addition, the values for the Cmax in data set [4] (oral 12.5 mg/kg), in data set [4] (setting [6]) and in data set [4] (setting [7]) were 23 (9) μg/ml, 23 (11) μg/ml and 20 (7) μg/ml, respectively. The AUC in data set [4] (oral 12.5 mg/kg, 8 healthy volunteers) is reported as 905 (443) μg/ml min; in data set [4] (setting [6]) it was 1271 (560) μg/ml min; in data set [4] (setting [7]) it was 1565 (548) μg/ml min.

The record behind these values is patent US5594030A, “Controlled release pharmaceutical compositions based on one or more pharmaceutically acceptable salts of gamma hydroxy-butyric acid” (Laboratorio Farmaceutico C.T. S.r.l., priority 1993, dated 1997).
